# Activity calls are given as the source filed them. No cut-off for these calls is given here.
# What was measured:
# Candida albicans [1] = assay: Antibiofilm activity against fluconazole-resistant Candida albicans CPCC400616 assessed as inhibition of metabolic activity of biofilm measured after 6 hrs by XTT reduction assay; assay type: functional
# [2] = MRT(0 to t) in Sprague-Dawley rat at 3 mg/kg, iv by LC-MS/MS analysis; assay type: ADME, organism-based; conditions: in vivo
# Candida albicans [3] = assay: Antifungal activity against fluconazole-resistant Candida albicans CaR assessed as inhibition of fungal growth by CLSI M27-A3 guidelines based method; assay type: functional
# Candida albicans [4] = assay: Antifungal activity against fluconazole and iodiconazole resistant Candida albicans clinical isolate 17# assessed as inhibition of fungal growth by CLSI M27-A3 guidelines based method; assay type: functional
# Candida albicans [5] = assay: Fungicidal activity fluconazole and iodiconazole resistant Candida albicans clinical isolate 17# assessed as decrease in number of fungi at 4 times of MIC measured within 24 hrs by time-kill kinetics assay; assay type: functional, organism-based
# [6] = Metabolic stability in human liver microsomes assessed as half-life preincubated for 10 mins followed by NADPH addition and measured after 60 mins by LC-MS/MS analysis; assay type: ADME, Microsome; conditions: time 70 min
# [7] = Cytotoxicity against HUVEC cells assessed as inhibition of cell growth incubated for 72 hrs by MTT assay; assay type: toxicity, cell-based; conditions: human
# [8] = Apparent volume of distribution in Sprague-Dawley rat at 3 mg/kg, iv by LC-MS/MS analysis; assay type: ADME, organism-based; conditions: in vivo, read-out: Vz
# [9] = AUC (0 to infinity) in Sprague-Dawley rat at 10 mg/kg, po by LC-MS/MS analysis; assay type: ADME, organism-based; conditions: in vivo
# Candida albicans [10] = assay: Antifungal activity against fluconazole-resistant Candida albicans clinical isolate 901 assessed as inhibition of fungal growth by CLSI M27-A3 guidelines based method; assay type: functional
# Candida albicans [11] = assay: Fungicidal activity against Candida albicans SC5314 incubated for 48 hrs by PDA plate based method; assay type: functional
# Candida albicans [12] = assay: Effect on sterol composition in Candida albicans SC5314 assessed as 14alpha-demethyllanosterol content at 0.05 microg/ml measured after 16 hrs by GC-MS analysis (reference value: […] %); assay type: functional; conditions: dose 0.05 µg/ml
# Candida albicans [13] = assay: Antifungal activity against fluconazole-resistant Candida albicans clinical isolate 632 assessed as inhibition of fungal growth by CLSI M27-A3 guidelines based method; assay type: functional
# [14] = Oral bioavailability in Sprague-Dawley rat at 10 mg/kg by LC-MS/MS analysis; assay type: ADME, organism-based; conditions: in vivo
# Candida albicans [15] = assay: Antifungal activity against fluconazole-resistant Candida albicans clinical isolate 100 assessed as inhibition of fungal growth by CLSI M27-A3 guidelines based method; assay type: functional
# Candida albicans [16] = assay: Inhibition of hyphal formation in fluconazole-resistant Candida albicans CPCC400616 assessed as reduction in invasive ability at 2 microg/ml measured after 4 hrs by inverted microscopic analysis; assay type: functional, organism-based; conditions: dose 2.0 µg/ml
# [17] = Half-life in Sprague-Dawley rat at 10 mg/kg, po by LC-MS/MS analysis; assay type: ADME, organism-based; conditions: in vivo
# Candida parapsilosis = assay: Antifungal activity against Candida parapsilosis GIM 2.190 assessed as inhibition of fungal growth by CLSI M27-A3 guidelines based method; assay type: functional; conditions: Lodderomyces parapsilosis
# Candida albicans [18] = assay: Fungicidal activity fluconazole and iodiconazole resistant Candida albicans clinical isolate 17# assessed as decrease in number of fungi at 2 times of MIC measured within 24 hrs by time-kill kinetics assay; assay type: functional, organism-based
# [19] = Clearance in Sprague-Dawley rat at 3 mg/kg, iv by LC-MS/MS analysis; assay type: ADME, organism-based; conditions: in vivo
# Candida tropicalis = assay: Antifungal activity against Candida tropicalis GIM 2.183 assessed as inhibition of fungal growth by CLSI M27-A3 guidelines based method; assay type: functional
# [20] = Half-life in Sprague-Dawley rat at 3 mg/kg, iv by LC-MS/MS analysis; assay type: ADME, organism-based; conditions: in vivo
# [21] = Metabolic stability in human liver microsomes assessed as parent compound remaining preincubated for 10 mins followed by NADPH addition and measured after 60 mins by LC-MS/MS analysis; assay type: ADME, Microsome; conditions: time 70 min, read-out: Stability
# Cryptococcus neoformans = assay: Antifungal activity against Cryptococcus neoformans CGMCC 2.3161 assessed as inhibition of fungal growth by CLSI M27-A3 guidelines based method; assay type: functional
# Pichia kudriavzevii = assay: Antifungal activity against Candida krusei GIM 2.1 assessed as inhibition of fungal growth by CLSI M27-A3 guidelines based method; assay type: functional
# [22] = Cytotoxicity against human NCI-H460 cells assessed as inhibition of cell growth incubated for 72 hrs by MTT assay; assay type: toxicity, cell-based
# Aspergillus fumigatus = assay: Antifungal activity against Aspergillus fumigatus cgmcc 3.7795 assessed as inhibition of fungal growth by CLSI M27-A3 guidelines based method; assay type: functional
# [23] = Tmax in Sprague-Dawley rat at 3 mg/kg, iv by LC-MS/MS analysis; assay type: ADME, organism-based; conditions: in vivo
# [24] = Cytotoxicity against human OVCAR-3 cells assessed as inhibition of cell growth incubated for 72 hrs by MTT assay; assay type: toxicity, cell-based
# [25] = Tmax in Sprague-Dawley rat at 10 mg/kg, po by LC-MS/MS analysis; assay type: ADME, organism-based; conditions: in vivo
# Candida albicans [26] = assay: Effect on sterol composition in Candida albicans SC5314 assessed as obtusifoliol content at 0.05 microg/ml measured after 16 hrs by GC-MS analysis relative to control; assay type: functional; conditions: dose 0.05 µg/ml
# Candida albicans [27] = assay: Fungicidal activity fluconazole and iodiconazole resistant Candida albicans clinical isolate 17# assessed as decrease in number of fungi at 1 times of MIC measured within 24 hrs by time-kill kinetics assay; assay type: functional, organism-based
# Candida albicans [28] = assay: Antifungal activity against fluconazole-resistant Candida albicans clinical isolate 311 assessed as inhibition of fungal growth by CLSI M27-A3 guidelines based method; assay type: functional
# Candida albicans [29] = assay: Fungicidal activity against fluconazole and iodiconazole resistant Candida albicans clinical isolate 17# incubated for 48 hrs by PDA plate based method; assay type: functional
# [30] = AUC (0 to infinity) in Sprague-Dawley rat at 3 mg/kg, iv by LC-MS/MS analysis; assay type: ADME, organism-based; conditions: in vivo
# Candida albicans [31] = assay: Effect on sterol composition in Candida albicans SC5314 assessed as other sterols content at 0.05 microg/ml measured after 16 hrs by GC-MS analysis (reference value: 1.06 %); assay type: functional; conditions: dose 0.05 µg/ml
# Candida albicans [32] = assay: Effect on sterol composition in Candida albicans SC5314 assessed as lanosterol content at 0.05 microg/ml measured after 16 hrs by GC-MS analysis relative to control; assay type: functional; conditions: dose 0.05 µg/ml
# Candida albicans [33] = assay: Antifungal activity against Candida albicans SC5314 assessed as inhibition of fungal growth by CLSI M27-A3 guidelines based method; assay type: functional
# [34] = Cmax in Sprague-Dawley rat at 10 mg/kg, po by LC-MS/MS analysis; assay type: ADME, organism-based; conditions: in vivo
# Candida albicans [35] = assay: Effect on sterol composition in Candida albicans SC5314 assessed as ergosterol content at 0.05 microg/ml measured after 16 hrs by GC-MS analysis (reference value: 96.96 %); assay type: functional; conditions: dose 0.05 µg/ml
# [36] = Cmax in Sprague-Dawley rat at 3 mg/kg, iv by LC-MS/MS analysis; assay type: ADME, organism-based; conditions: in vivo
# Candida albicans [37] = assay: Antifungal activity against fluconazole-resistant Candida albicans clinical isolate 904 assessed as inhibition of fungal growth by CLSI M27-A3 guidelines based method; assay type: functional
# Candida albicans [38] = assay: Antibiofilm activity against fluconazole-resistant Candida albicans CPCC400616 assessed as inhibition of metabolic activity of biofilm measured after 24 hrs by XTT reduction assay; assay type: functional
# Candida albicans [39] = assay: Effect on sterol composition in Candida albicans SC5314 assessed as eburicol content at 0.05 microg/ml measured after 16 hrs by GC-MS analysis relative to control; assay type: functional; conditions: dose 0.05 µg/ml
# [40] = Cytotoxicity against HEK293T cells assessed as inhibition of cell growth incubated for 72 hrs by MTT assay; assay type: toxicity, cell-based, HEK-293T; conditions: human
# Nakaseomyces glabratus = assay: Antifungal activity against Candida glabrata assessed as inhibition of fungal growth by CLSI M27-A3 guidelines based method; assay type: functional
# Candida albicans [41] = assay: Antifungal activity against Candida albicans GIM 2.194 assessed as inhibition of fungal growth by CLSI M27-A3 guidelines based method; assay type: functional
# Candida albicans [42] = assay: Antifungal activity against fluconazole-resistant Candida albicans clinical isolate 103 assessed as inhibition of fungal growth by CLSI M27-A3 guidelines based method; assay type: functional
structure (smiles),measurement,setting,value
C[C@@H](N(C)Cc1ccc(C#Cc2ccc(F)cc2F)cc1)[C@](O)(Cn1cncn1)c1ccc(F)cc1F,MIC50,Candida albicans [1],0.5 µg/mL
same,MRT last,[2],1.92 h
same,MIC80,Candida albicans [3],0.25 µg/mL
same,MIC80,Candida albicans [4],0.25 µg/mL
same,Activity,Candida albicans [5],Active; Effectively Kills Fungal Cells In Viable Colony Counts
same,half-life,[6],0.503 h
same,IC50 at 72 h,[7],> 10 µM
same,Vd,[8],15.7 L/kg
same,AUC(0-inf),[9],1600 ng·h/mL
same,MIC80,Candida albicans [10],4 µg/mL
same,MFC,Candida albicans [11],0.125 µg/mL
same,Activity,Candida albicans [12],2.79%
same,MIC80,Candida albicans [13],4 µg/mL
same,bioavailability,[14],26.3%
same,MIC80,Candida albicans [15],4 µg/mL
same,inhibition,Candida albicans [16],Active; Blockade Of Morphological Transformation Observed
same,half-life,[17],4.08 h
same,MIC80,Candida parapsilosis,0.006 µg/mL
same,Activity,Candida albicans [18],Active
same,clearance,[19],27.5 mL/min/kg
same,MIC80,Candida tropicalis,0.006 µg/mL
same,half-life,[20],6.57 h
same,remaining at 1 h,[21],25.9%
same,MIC80,Cryptococcus neoformans,0.013 µg/mL
same,MIC80,Pichia kudriavzevii,0.01 µg/mL
same,IC50 at 72 h,[22],> 10 µM
same,MIC80,Aspergillus fumigatus,0.05 µg/mL
same,Tmax,[23],4.98 min
same,IC50 at 72 h,[24],> 10 µM
same,Tmax,[25],2.33 h
same,Activity,Candida albicans [26],13.69%
same,Activity,Candida albicans [27],Active
same,MIC80,Candida albicans [28],8 µg/mL
same,MFC,Candida albicans [29],1 µg/mL
same,AUC(0-inf),[30],1830 ng·h/mL
same,Activity,Candida albicans [31],3.13%
same,Activity,Candida albicans [32],9.97%
same,MIC80,Candida albicans [33],0.006 µg/mL
same,Cmax,[34],283 ng/mL
same,Activity,Candida albicans [35],0.29%
same,Cmax,[36],2460 ng/mL
same,MIC80,Candida albicans [37],8 µg/mL
same,MIC50,Candida albicans [38],4 µg/mL
same,Activity,Candida albicans [39],70.13%
same,IC50 at 72 h,[40],> 10 µM
same,MIC80,Nakaseomyces glabratus,0.01 µg/mL
same,MIC80,Candida albicans [41],0.006 µg/mL
same,MIC80,Candida albicans [42],4 µg/mL
